Laboratory results taken from patent US20120156150A1, “Composition for Improving Skin Condition Comprising Extract from Black Tea as Active Ingredient” (Keimyung University Industry Academic Cooperation Foundation, priority 2010, published 2012).
Marks after values point to notes of the source that are not given here. One block for each compound: values may come before it.

Assays:
[1] = Electron donating ability (DPPH radical scavenging, Blois' method); settings: 800 μg/mL
Procedure: DPPH radical scavenging effect was measuring according to the Blois' method (1958). […] After adding 1 mL of the test sample in a test tube, 4×10^−4 M DPPH (4 mL) was added. The resulting mixture was shaken vigorously, allowed to stand in warm water of 60° C. for 10 seconds, and absorbance was measured at 525 nm. BHT was used as the positive control group. Then, free radical scavenging activity of each solution was calculated as “% inhibition” according to the following equation: % inhibition=[1−(Asample/Ablank)]×100, wherein Ab1ank is the absorbance of the control group (excluding the test sample) and Asample is the absorbance of the test compound.

[2] = tested on: UVB-induced hyperpigmentation; assay: Melanin index (mexameter), brown guinea pig; format: in vivo; settings: 2% sample topical
Procedure: Three brown guinea pigs weighing 450-550 g were purchased from Oriental Yeast Co. Ltd. (OYC; Japan). The animals were accustomed to the test environment for 7 days. The animals were housed in individual cages under the environment of 22±1° C. and 50±5% relative humidity with 12-hour alternate dark/light cycles. Feed and water were given ad libitum.
UVB-induced hyperpigmentation was elicited on the back of the brown guinea pig according to the method of Choi et al. (2004). After anesthetizing the guinea pig with ketamine hydrochloride (100 mg/kg BW), 24 separate areas (φ 12 mm) on the skin of the back was exposed to UVB radiation (302-nm sunlamp). The areas were exposed to UVB of 500 mJ/cm^2 for 3 consecutive weeks, once a week. That is, a total of 1,500 mJ/cm^2 of UVB was radiated.
On day 10 after the final UVB radiation, 30 μL (1.06 mg/cm^2/day) of 2% HQ, EGCG, GT, WT or BT was topically applied for 4 weeks to the hyperpigmented areas (9 areas per each) using a micropipette, twice a day, and 4 days a week. Saline was used as control, and propylene glycol:ethanol:water (5:3:2) was used as vehicle control.
Before and after the topical application of the test sample, change in melanin pigmentation was measured 3 times in a non-invasive manner using a mexameter, once a week. The degree of pigmentation was analyzed by averaging the measured values.

[3] = tested on: melanin pigmentation in the epithelium; assay: Fontana-Masson's silver staining, melanin-pigmented area; format: in vivo, brown guinea pig; settings: week 4; 2% sample
Procedure: In order to observe the morphological change of the skin tissue using an optical microscope, the extracted skin tissue was fixed in a 10% neutral formalin solution for 12 hours and washed with flowing water. After dehydrating in 70, 80, 95 and 100% ethanol followed by washing with xylene, the tissue was embedded in paraffin and 4 μm-thick samples were prepared using a microtome.
Paraffin was removed from the sample using xylene. After staining the sample for 60 minutes in silver nitrate solution at 56° C. according to the Masson's method (1928), followed by washing, color-toning 0.2% gold chloride solution and washing again, the sample was kept in 5% sodium thiosulfate solution for 5 minutes. Subsequently, after washing the sample once again, followed by counterstaining in nuclear fast red solution, dehydration in 95%, 95%, 100% and 100% alcohol and washing with xylene, the sample was put in Canada balsam for microscopic observation. The percentage of the melanin-pigmented area was calculated using an image analysis software.

[4] = tested on: S-100 protein; assay: Immunohistochemical S-100 staining; format: in vivo, brown guinea pig; settings: week 4; 2% sample
Procedure: (§1) After dehydration, followed by washing with xylene and embedding in paraffin, 4 μm-thick samples were prepared. The sample was adhered on a coating slide and stained using the BenchMark XT automated immunostainer (Ventana Medical Systems, USA) after removing paraffin. […] Following reaction with S-100 and HMB-45 primary antibodies diluted to 1:100, the sample was washed with reaction buffer, reacted with biotin for 20 minutes, and then reacted with streptavidin for 25 minutes. After coloring with diaminobenzidine (DAB) using the Ventana detection kit), the sample was stained for observation using an optical microscope.

[5] = tested on: gp100 protein; assay: Immunohistochemical HMB-45 staining (gp100); format: in vivo, brown guinea pig; settings: week 4; 2% sample
Procedure: as §1

[6] = biological target: tyrosinase (Homo sapiens, UniProt P14679); settings: Briganti et al. 2003; cited from earlier work
Chain of tyrosinase (P14679 19-529, species assumed): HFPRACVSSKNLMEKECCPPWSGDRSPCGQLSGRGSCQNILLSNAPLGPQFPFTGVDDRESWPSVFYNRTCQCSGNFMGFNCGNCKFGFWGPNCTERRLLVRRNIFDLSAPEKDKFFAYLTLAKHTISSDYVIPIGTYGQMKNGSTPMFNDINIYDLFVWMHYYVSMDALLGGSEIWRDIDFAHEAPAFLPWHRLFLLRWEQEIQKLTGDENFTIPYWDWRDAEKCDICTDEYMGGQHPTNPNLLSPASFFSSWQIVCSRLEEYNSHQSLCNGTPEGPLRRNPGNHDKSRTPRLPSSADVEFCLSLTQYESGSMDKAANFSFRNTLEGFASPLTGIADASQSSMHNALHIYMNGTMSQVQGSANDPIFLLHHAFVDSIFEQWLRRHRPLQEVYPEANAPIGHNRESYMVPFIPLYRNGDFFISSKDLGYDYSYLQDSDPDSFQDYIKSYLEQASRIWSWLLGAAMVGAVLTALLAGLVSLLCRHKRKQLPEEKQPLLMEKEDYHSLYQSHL

[7] = tested on: hyperpigmentation; settings: Ortonne and Passeron 2005; cited from earlier work
[8] = tested on: UVB-irradiated skin; assay: Skin erythema index, SKH-1 hairless mouse; format: in vivo; settings: for skin erythema index: RA 0.01%, GT/WT/BT 2%
Procedure: (§2) 7-week-old SKH-1 hairless mice was purchased from Charles River (Japan). The animals were accustomed to the test environment for 1 week. The animals were housed in individual cages under the environment of 22±1° C. and 50±5% relative humidity with 12-hour alternate dark/light cycles. Feed and water were given ad libitum. The animals were grouped into 7 groups as follows, with 7 mice per each:
(§3) The mouse was subjected to UVB radiation (302 nm sunlamp) on the back for […], 3 times a week. The radiation amount was 1 minimal erythemal dose (MED: 60 mJ/cm^2) on the 1st week, 2 MED (120 mJ/cm^2) on the 2nd week, 3 MED (180 mJ/cm^2) on the 3rd week, and 4 MED (240 mJ/cm^2) on the 4th to 12th weeks. The radiation with 4 MED was carried out once a week during the test period.
(§4) After inducing wrinkle formation, 200 μL of saline or the sample was applied for 4 weeks, 5 times a week (2%: 0.26 g/kg BW/day). RA was applied together with polyethylene glycol at a concentration of 0.01% for 4 weeks, 5 times a week, twice a day, with 200 μL per each.
(§5) Skin erythema index, water content and transepidermal water loss (TEWL) were measured in a non-invasive manner using a mexameter, a corneometer and a tewameter, once a week during the test period.

[9] = tested on: UVB-irradiated skin; assay: Skin water content (corneometer), SKH-1 hairless mouse; format: in vivo; settings: for water content of the skin: RA 0.01%, GT/WT/BT 2%
Procedure: as §2, §3, §4, §5

[10] = tested on: UVB-irradiated skin; assay: Transepidermal water loss (TEWL), SKH-1 hairless mouse; format: in vivo; settings: for TEWL: RA 0.01%, GT/WT/BT 2%
Procedure: as §2, §3, §4, §5

[11] = tested on: UVB-induced wrinkles; assay: Measurement of wrinkles (skin replica, Visioline); format: in vivo, SKH-1 hairless mouse; settings: RA 0.01%, GT/WT/BT 2%
Procedure: as §2, §3, §4
Skin replica was prepared from the back skin of the hairless mouse using the Silflo impression material (Flexico, England). The roughness of the skin was assessed using Visioline. Total wrinkle area (mm^2) was calculated.

[12] = tested on: MMP-3; assay: RT-PCR, MMP-3 mRNA in skin tissue; format: in vivo, SKH-1 hairless mouse; settings: RA 0.01%, GT/WT/BT 2%
Procedure: 50 mg of the sample from the mouse back skin kept at low temperature was homogenized with 1 mL of Trizol. The homogenized sample was incubated at room temperature for 5 minutes after adding 200 μL of chloroform, and centrifuged at 15,000 rpm and 4° C. for 10 minutes. After collecting and transferring the supernatant to a fresh tube and adding 500 μL of isopropyl alcohol, the sample was centrifuged at 4° C. and 15,000 rpm for 15 minutes. The resulting RNA pellet was washed with 1 mL of 70% ethanol and centrifuged at 4° C. and 15,000 rpm for 15 minutes. The RNA pellet finally obtained by removing the supernatant was diluted with diethylpyrocarbonate (DEPC) and quantitated with 1.8<optical density (OD; A260/A280)<2.0 using a white light/UV transilluminator. cDNA was synthesized from total RNA at a concentration of 0.1-1 μg/μL using the Cycle Script RT PreMix (dT20) kit. The cDNA synthesis was performed by 12 cycles of 1 minute at 30° C. and 4 minutes at 50° C. in 205 μL of DEPC, and the sample was heated at 95° C. for 5 minutes. Polymerase chain reaction (PCR) was carried out in 15.2 μL of sterilized water containing 2 μL of template and […] of primer using the Accupower™ PCR PreMix kit. The reaction was carried out for 35 cycles. […] DNA band density was calculated using the Kodak Gel Logic 100 image analysis system.

[13] = Water and feed intake, feed efficiency and body weight; format: in vivo, SKH-1 hairless mouse
Procedure: Water and feed intake of the test animal was measured once a week. Body weight was measured between 09:00 and 10:00 in the morning, once a week during the test period.

[14] = Organ weight (spleen, thymus); format: in vivo, SKH-1 hairless mouse
Procedure: After extracting the skin, a portion of the skin was fixed in 10% neutral-buffered formalin solution for histological analysis and the remainder was kept in a refrigerator (−80° C.) for analysis of MMPs. Thymus and spleen extracts were washed with saline and weighed on an electronic scale after removing water with filer paper.

[15] = Hematological analysis; format: in vivo, SKH-1 hairless mouse; settings: RA 0.01%, GT/WT/BT 2%
Procedure: Blood sample was added to a blood collection tube containing the anticoagulant K2EDTA and mixed for more than 5 minutes. Then, concentration of erythrocytes, leukocytes, neutrophils, eosinophils, basophils, lymphocytes, monocytes, platelets and hemoglobin and hematocrit were measured using a hematological analyzer.

SMILES: Oc1ccc(O)cc1 [HQ, Hydroquinone]
Electron donating ability [1]: 93% | melanin index ([2]; week 0): 724.8 ± 22.8^a AU | melanin index ([2]; week 1): 702.9 ± 24.4^a* AU | melanin index ([2]; week 2): 673.9 ± 26.1^c AU | melanin index ([2]; week 3): 636.7 ± 25.8^b AU | melanin index ([2]; week 4): 583.0 ± 28.0^b AU | melanin index decreased by, as compared to the group C ([2]; week 4): 17% | % of melanin pigment [3]: 9.5 ± 1.5^bc % | Melanin pigment area [3]: 1163 ± 268 μm^2 | melanin pigmented area decreased by, as compared to the control group [3]: 53% | % of S-100 Protein [4]: 4.3 ± 0.5^ab % | S-100 Protein area [4]: 511 ± 89 μm^2 | area of S-100 protein expression, decrease by, as compared to the control groups [4]: 69% | % of Melanin pigment (Table 5, gp 100 protein) [5]: 4.4 ± 0.8^c % | Melanin pigment (area; Table 5, gp 100 protein) [5]: 469 ± 111 μm^2 | area of gp 100 protein expression, decrease by, as compared to the group C [5]: 68% | decreases tyrosinase activity up to [6]: up to 90% | improves hyperpigmentation in % of cases [7]: 14-70%

Spleen absolute weight ([14]; RA 0.01%, GT/WT/BT 2%): 0.136 ± 0.015^a g | Spleen relative weight ([14]; RA 0.01%, GT/WT/BT 2%): 0.475 ± 0.053^a g/100 g body weight | Thymus absolute weight ([14]; RA 0.01%, GT/WT/BT 2%): 0.019 ± 0.005^ab g | Thymus relative weight ([14]; RA 0.01%, GT/WT/BT 2%): 0.067 ± 0.01^ab g/100 g body weight | organ weight relative to the normal group ([14]; p <0.05): significantly lower | Basophil [15]: 0.004 ± 0.04^a k/μl | Eosinophil [15]: 0.050 ± 0.05^a k/μl | HCT [15]: 43.442 ± 0.87^b % | Hb [15]: 13.800 ± 0.18^b g/dl | Lymphocyte [15]: 6.462 ± 0.34^c k/μl | Monocyte [15]: 0.204 ± 0.06^b k/μl | Neutrophil [15]: 2.340 ± 0.39^cd k/μl | Platelet [15]: 517.80 ± 16.44^b k/μl | RBC [15]: 4.274 ± 0.17^b M/μl | WBC [15]: 9.114 ± 0.55^b k/μl
SMILES: CC1=C(/C=C/C(C)=C/C=C/C(C)=C/C(=O)O)C(C)(C)CCC1 [RA, retinoic acid]
skin erythema index ([8]; week 1): 314.38 ± 17.33^c AU | skin erythema index ([8]; week 2): 301.10 ± 16.60^b AU | skin erythema index ([8]; week 3): 294.43 ± 13.14^b AU | skin erythema index lower as compared to the control group ([8]; week 4): 32% | skin erythema index ([8]; week 4): 282.64 ± 15.50^b AU | water content of the skin ([9]; week 1): 57.99 ± 7.31^b AU | water content of the skin ([9]; week 2): 65.70 ± 5.75^c AU | water content of the skin ([9]; week 3): 71.42 ± 5.82^cd AU | water content higher as compared to the control group ([9]; week 4): 207% | water content of the skin ([9]; week 4): 88.59 ± 4.87^cd AU | TEWL ([10]; week 1): 24.16 ± 4.49^c** g/m^2/h | TEWL ([10]; week 2): 18.33 ± 4.85^b** g/m^2/h | TEWL ([10]; week 3): 18.76 ± 3.66^c g/m^2/h | TEWL lower as compared to the control group ([10]; week 4): 58% | TEWL ([10]; week 4): 16.90 ± 3.59^b g/m^2/h | decreased wrinkle area as compared to the control group [11]: 49% | expression level of MMP-3 mRNA lower as compared to the control group [12]: 77% | Food efficiency ratio ([13]; (Body weight gain/Food intake) × 100): −0.94 ± 1.71^a % | Body weight gain ([13]; RA 0.01%, GT/WT/BT 2%): −0.050 ± 0.09^a g/day | Food intake ([13]; RA 0.01%, GT/WT/BT 2%): 5.36 ± 1.06^a g/day | Water intake ([13]; RA 0.01%, GT/WT/BT 2%): 8.57 ± 1.75^b Ml/day | water intake as compared to the control group ([13]; p <0.05): remarkably higher water intake
